≈ marks a conversion by molar mass, not a printed value. Like-named read-outs stand apart in the source and are kept apart here.
Columns and labels:
S. paratyphi 11737 = test: In vitro antibacterial activity (MIC), S. paratyphi 11737; assay type: cell-based; settings: Salmonella enterica, 18 h
[1] = system: Plasmodium berghei KBG 173; test: Antimalarial blood schizonticidal test in mice; assay type: in vivo, Plasmodium berghei (infected ICR/HA Swiss mice); parameters: ΔMST (increase in mean survival time): unit: days; settings: s.c.; for minimal effective dose: Plasmodium berghei, sc, single dose, read-out: Min. Curing Dose; for Cure/Treat at Min. Curing Dose: at the Min. Curing Dose
Excerpt: In addition, the invention provides compounds which have antimalarial activity in vivo as evidenced by a standard blood schizonticidal test in mice infected with Plasmodium berghei KBG 173.
Utilizing young ICR/HA Swiss mice and a standard inoculum of Plasmodium berghei KBG 173, it is possible to produce a uniform disease fatal to 100% of untreated animals within 6 to 8 days with a mean survival time of 6.2 days. Test animals weigh from 18 to 22 grams but weight variations in any given experimental or control group are confined to 2-3 grams. All animals in any given test are approximately of the same age. Animals on test are housed in metal-topped plastic cages, given a standard laboratory diet and water ad libitum.
Test animals receive an intraperitoneal injection of 0.5 ml. of 1:100 dilution of heparinized heart's blood with a minimum of 90% parasitized cells (4 × 10^7 cells), drawn from donor mice infected one week earlier with Plasmodium berghei. The donor strain is maintained by weekly passages in separate groups of mice inoculated with a 0.5 ml. of 1:500 dilution of heparinized heart's blood.
Test compounds are administered after dissolution or suspension in peanut oil. A single dose is given subcutaneously 72 hours after the mice are infected with Plasmodium berghei. At this time a 10-15 percent parasitemia has developed; the disease is well established but has not produced sufficient debility to alter the response of the host to toxic effects of the drug on test. Since treatment is withheld for three days to permit the infection to become well established and death occurs in untreated controls within 6-8 days, it is felt that this system presents a candidate compound with the maximum challenge. In order to check factors such as changes in the infectivity of Plasmodium berghei or in the susceptibility of the host or to detect technical errors, a group of infected animals treated with pyrimethamine at dose levels producing definite increases in survival time is included in a positive control in every experiment.
In each experiment test compounds are administered in graded dosages. […] However, if an active drug is toxic for the host, its toxicity may become a limiting factor; continued increases in dose levels also increase the toxic effects and may result in the diminution of survival times. Deaths prior to the sixth day, when untreated controls begin to die, are regarded as nonparasitic and become the basis for toxicity evaluations. […] In calculating mean survival time, toxic deaths and 60-day survivors are not included.
Compounds are considered active which produce a cure in at least one test animal or which produce significant increases in mean survival times of the treated animals as compared with the mean survival times of untreated controls, provided that no drug related deaths (toxicity) are noted at the active dose.

E. coli 9637 = test: In vitro antibacterial activity (MIC), E. coli 9637; settings: Escherichia coli, 9637, 18 h
S. aureus Smith = test: In vitro antibacterial activity (MIC), S. aureus Smith; settings: Staphylococcus aureus, 18 h
S. aureus 53-180 = test: In vitro antibacterial activity (MIC), S. aureus 53-180; settings: Staphylococcus aureus, 53180, 18 h
P. vulgaris 6896 = test: In vitro antibacterial activity (MIC), P. vulgaris 6896; settings: Proteus vulgaris, 6896, 18 h
N. catarrhalis 8193 = test: In vitro antibacterial activity (MIC), N. catarrhalis 8193; settings: 18 h
K. pneumoniae 10031 = test: In vitro antibacterial activity (MIC), K. pneumoniae 10031; settings: Klebsiella pneumoniae, 10031, 18 h

## Nc1nc(N)c2c(ccc3c2ccn3Cc2cccc(C(F)(F)F)c2)n1 [Example 12]
S. paratyphi 11737
  MIC: 7.81 µg/mL (≈ 21.9 µM)
[1]; 1440 h, 60-day survivors
  minimal effective dose: 5 mg/kg
[1]; 60-day survivors
  Cure/Treat at Min. Curing Dose: 1/5
[1]; dose 2.5 mg. per kg.
  ΔMST (increase in mean survival time): 7.5
E. coli 9637
  MIC: 0.976 µg/mL (≈ 2.73 µM)
S. aureus Smith
  MIC: 0.488 µg/mL (≈ 1.37 µM)
S. aureus 53-180
  MIC: 0.244 µg/mL (≈ 0.683 µM)
P. vulgaris 6896
  MIC: 62.5 µg/mL (≈ 175 µM)
N. catarrhalis 8193
  MIC: 0.122 µg/mL (≈ 0.341 µM)
K. pneumoniae 10031
  MIC: 0.488 µg/mL (≈ 1.37 µM)

## Cc1ccccc1Cn1ccc2c3c(N)nc(N)nc3ccc21 [Example 19]
S. paratyphi 11737
  MIC: 3.9 µg/mL (≈ 12.9 µM)
[1]; 1440 h, 60-day survivors
  minimal effective dose: 40 mg/kg
[1]; 60-day survivors
  Cure/Treat at Min. Curing Dose: 3/5
[1]; dose 40 mg. per kg.
  ΔMST (increase in mean survival time): 8.4
E. coli 9637
  MIC: 0.976 µg/mL (≈ 3.22 µM)
S. aureus Smith
  MIC: 0.488 µg/mL (≈ 1.61 µM)
S. aureus 53-180
  MIC: 0.488 µg/mL (≈ 1.61 µM)
P. vulgaris 6896
  MIC: 7.81 µg/mL (≈ 25.7 µM)
N. catarrhalis 8193
  MIC: 0.0152 µg/mL (≈ 0.0501 µM)
K. pneumoniae 10031
  MIC: 0.122 µg/mL (≈ 0.402 µM)

## Nc1nc(N)c2c(ccc3c2ccn3Cc2ccc3c(c2)OCO3)n1 [Example 38]
S. paratyphi 11737
  MIC: 15.6 µg/mL (≈ 46.8 µM)
[1]; 1440 h, 60-day survivors
  minimal effective dose: 10 mg/kg
[1]; 60-day survivors
  Cure/Treat at Min. Curing Dose: 2/5
[1]; dose 2.5 mg. per kg.
  ΔMST (increase in mean survival time): 12.2
E. coli 9637
  MIC: 7.81 µg/mL (≈ 23.4 µM)
S. aureus Smith
  MIC: 7.81 µg/mL (≈ 23.4 µM)
S. aureus 53-180
  MIC: 1.95 µg/mL (≈ 5.85 µM)
P. vulgaris 6896
  MIC: 31.3 µg/mL (≈ 93.9 µM)
N. catarrhalis 8193
  MIC: 0.244 µg/mL (≈ 0.732 µM)
K. pneumoniae 10031
  MIC: 1.95 µg/mL (≈ 5.85 µM)

## Nc1nc(N)c2c(ccc3c2ccn3CC2CCCCC2)n1 [Example 54]
S. paratyphi 11737
  MIC: 7.81 µg/mL (≈ 26.4 µM)
[1]; dose 40 mg. per kg.
  ΔMST (increase in mean survival time): 8.5
E. coli 9637
  MIC: 1.95 µg/mL (≈ 6.6 µM)
S. aureus Smith
  MIC: 7.81 µg/mL (≈ 26.4 µM)
S. aureus 53-180
  MIC: 3.9 µg/mL (≈ 13.2 µM)
P. vulgaris 6896
  MIC: 3.9 µg/mL (≈ 13.2 µM)
N. catarrhalis 8193
  MIC: 0.0152 µg/mL (≈ 0.0515 µM)
K. pneumoniae 10031
  MIC: 0.488 µg/mL (≈ 1.65 µM)

## CC(C)=CCn1ccc2c3c(N)nc(N)nc3ccc21 [Example 55]
S. paratyphi 11737
  MIC: 7.81 µg/mL (≈ 29.2 µM)
[1]; 1440 h, 60-day survivors
  minimal effective dose: 640 mg/kg
[1]; 60-day survivors
  Cure/Treat at Min. Curing Dose: 3/5
[1]; dose 320 mg. per kg.
  ΔMST (increase in mean survival time): 9.3
E. coli 9637
  MIC: 3.9 µg/mL (≈ 14.6 µM)
S. aureus Smith
  MIC: 1.95 µg/mL (≈ 7.29 µM)
S. aureus 53-180
  MIC: 0.976 µg/mL (≈ 3.65 µM)
P. vulgaris 6896
  MIC: 7.81 µg/mL (≈ 29.2 µM)
N. catarrhalis 8193
  MIC: 0.0038 µg/mL (≈ 0.0142 µM)
K. pneumoniae 10031
  MIC: 0.488 µg/mL (≈ 1.83 µM)

## CC(C)CCn1ccc2c3c(N)nc(N)nc3ccc21 [Example 66, 7-(3-Methylbutyl)-7H-pyrrolo[3,2-f]quinazoline-1,3-diamine]
S. paratyphi 11737
  MIC: 3.9 µg/mL (≈ 14.5 µM)
[1]; dose 320 mg. per kg.
  ΔMST (increase in mean survival time): 8.1
E. coli 9637
  MIC: 0.976 µg/mL (≈ 3.62 µM)
S. aureus Smith
  MIC: 1.95 µg/mL (≈ 7.24 µM)
S. aureus 53-180
  MIC: 0.976 µg/mL (≈ 3.62 µM)
P. vulgaris 6896
  MIC: 3.9 µg/mL (≈ 14.5 µM)
N. catarrhalis 8193
  MIC: 0.0038 µg/mL (≈ 0.0141 µM)
K. pneumoniae 10031
  MIC: 0.244 µg/mL (≈ 0.906 µM)

## CC(=O)c1ccccc1-n1ccc2c3c(N)nc(N)nc3ccc21 [Example 70]
S. paratyphi 11737
  MIC: 0.488 µg/mL (≈ 1.54 µM)
[1]; 1440 h, 60-day survivors
  minimal effective dose: 40 mg/kg
[1]; 60-day survivors
  Cure/Treat at Min. Curing Dose: 1/5
[1]; dose 40 mg. per kg.
  ΔMST (increase in mean survival time): 9.2
E. coli 9637
  MIC: 0.244 µg/mL (≈ 0.769 µM)
S. aureus Smith
  MIC: 0.061 µg/mL (≈ 0.192 µM)
S. aureus 53-180
  MIC: 0.031 µg/mL (≈ 0.0977 µM)
P. vulgaris 6896
  MIC: 0.976 µg/mL (≈ 3.08 µM)
N. catarrhalis 8193
  MIC: 0.0076 µg/mL (≈ 0.0239 µM)
K. pneumoniae 10031
  MIC: 0.0152 µg/mL (≈ 0.0479 µM)

## CC(=O)c1ccc(-n2ccc3c4c(N)nc(N)nc4ccc32)cc1 [Example 71]
S. paratyphi 11737
  MIC: 7.81 µg/mL (≈ 24.6 µM)
[1]; 1440 h, 60-day survivors
  minimal effective dose: 40 mg/kg
[1]; 60-day survivors
  Cure/Treat at Min. Curing Dose: 1/5
[1]; dose 20 mg. per kg.
  ΔMST (increase in mean survival time): 8.8
E. coli 9637
  MIC: 0.976 µg/mL (≈ 3.08 µM)
S. aureus Smith
  MIC: 1.95 µg/mL (≈ 6.14 µM)
S. aureus 53-180
  MIC: 0.488 µg/mL (≈ 1.54 µM)
P. vulgaris 6896
  MIC: 15.6 µg/mL (≈ 49.2 µM)
N. catarrhalis 8193
  MIC: 0.031 µg/mL (≈ 0.0977 µM)
K. pneumoniae 10031
  MIC: 0.122 µg/mL (≈ 0.384 µM)

## Nc1nc(N)c2c(ccc3c2ccn3-c2ccccc2[N+](=O)[O-])n1 [Example 76]
S. paratyphi 11737
  MIC: 1.95 µg/mL (≈ 6.09 µM)
[1]; 1440 h, 60-day survivors
  minimal effective dose: 40 mg/kg
[1]; 60-day survivors
  Cure/Treat at Min. Curing Dose: 4/5
E. coli 9637
  MIC: 0.976 µg/mL (≈ 3.05 µM)
S. aureus Smith
  MIC: 0.244 µg/mL (≈ 0.762 µM)
S. aureus 53-180
  MIC: 0.244 µg/mL (≈ 0.762 µM)
P. vulgaris 6896
  MIC: 3.9 µg/mL (≈ 12.2 µM)
N. catarrhalis 8193
  MIC: 0.031 µg/mL (≈ 0.0968 µM)
K. pneumoniae 10031
  MIC: 0.244 µg/mL (≈ 0.762 µM)

## Nc1nc(N)c2c(ccc3c2ccn3-c2ccc([N+](=O)[O-])cn2)n1 [Example 82]
S. paratyphi 11737
  MIC: > 250 µg/mL
[1]; 336 h, alive on day 14 considered cured, no 60-day data
  minimal effective dose: 160 mg/kg
[1]; alive on day 14 considered cured
  Cure/Treat at Min. Curing Dose: 1/5
E. coli 9637
  MIC: > 250 µg/mL
S. aureus Smith
  MIC: 0.976 µg/mL (≈ 3.04 µM)
S. aureus 53-180
  MIC: 3.9 µg/mL (≈ 12.1 µM)
P. vulgaris 6896
  MIC: > 250 µg/mL
N. catarrhalis 8193
  MIC: 0.031 µg/mL (≈ 0.0965 µM)
K. pneumoniae 10031
  MIC: 31.3 µg/mL (≈ 97.4 µM)

## Cc1cc2c(ccc3nc(N)nc(N)c32)[nH]1 [Example 98, 8-Methyl-7H-pyrrolo[3,2-f]quinazoline-1,3-diamine]
S. paratyphi 11737
  MIC: 15.6 µg/mL (≈ 73.2 µM)
[1]; 1440 h, 60-day survivors
  minimal effective dose: 160 mg/kg
[1]; 60-day survivors
  Cure/Treat at Min. Curing Dose: 3/5
[1]; dose 160 mg. per kg.
  ΔMST (increase in mean survival time): 13.9
E. coli 9637
  MIC: 3.9 µg/mL (≈ 18.3 µM)
S. aureus Smith
  MIC: 31.3 µg/mL (≈ 147 µM)
S. aureus 53-180
  MIC: 31.3 µg/mL (≈ 147 µM)
P. vulgaris 6896
  MIC: 15.6 µg/mL (≈ 73.2 µM)
N. catarrhalis 8193
  MIC: 1.95 µg/mL (≈ 9.14 µM)
K. pneumoniae 10031
  MIC: 3.9 µg/mL (≈ 18.3 µM)

Reference: patent US4118561A, “7-(Substituted)-7H-pyrrolo[3,2-f]quinazoline-1,3-diamines” (priority 1977, dated 1978)
